Earlier results as cited in patent publication US8703048B2, “Buffered swelling media for radiation sterilized hydrophilic coatings” (Coloplast A/S, priority 2008, dated 2014).

Details: in water

SMILES | pKa1 | pKa2 | pKa3
O=C(O)CCCC(=O)O [glutaric acid] | 4.31 | 5.41 | –
Nc1ccccc1C(=O)O [anthranilic acid] | 2.11 | 4.95 | –
NCCC(=O)N[C@@H](Cc1cnc[nH]1)C(=O)O [carnosine] | 2.73 | 6.87 | 9.73

Same assay, conditions: in water; single value given

SMILES | pKa
N#CO [cyanic acid] | 3.92
O=C(O)CNC(=O)c1ccccc1 [hippuric acid] | 3.80
O=C(O)[C@H](O)[C@@H](O)[C@H](O)[C@H](O)CO [gluconic acid] | 3.56
F [hydrofluoric acid] | 3.45
O=C(O)CCO [3-hydroxypropionic acid] | 3.73
